From ChEMBL document CHEMBL4011640, “Identification and Structure-Activity Relationships of Novel Compounds that Potentiate the Activities of Antibiotics in Escherichia coli” (J Med Chem, 2017)
Converted amounts (≈) assume the structure as drawn. The source made the active and inactive calls. The rule behind the calls is not given here.

Tests used:
Escherichia coli BW25113 [1] = assay: Inhibition of AcrA efflux pump in Escherichia coli BW25113 assessed as compound concentration required for potentiation of novobiocin-induced antibacterial activity by 4 fold by checkerboard assay
Escherichia coli [2] = assay: Binding affinity to Escherichia coli AG100 His-tagged AcrA at 25 uM by SPR assay
Escherichia coli [3] = assay: Ratio of MIC for wild type Escherichia coli harboring […] pores in the outer membrane to MIC for AcrAB-TolC knocked out Escherichia coli GD102 harboring […] pores in the outer membrane; type: functional
Escherichia coli [4] = assay: Antimicrobial activity against Escherichia coli harboring AcrAB-TolC deletion mutant after 24 hrs by two-fold broth microdilution assay; type: functional
Escherichia coli [5] = assay: Antimicrobial activity against Escherichia coli BW25113 after 24 hrs by two-fold broth microdilution assay; type: functional; conditions: BW25113, 24 h
Escherichia coli [6] = assay: Inhibition of AcrA in Escherichia coli assessed as increase in HT dye uptake at 25 uM measured up to 600 secs by fluorescence method
[7] = Ratio of MIC for wild type Escherichia coli BW25113 to MIC for Escherichia coli harboring […] pores in the outer membrane; type: functional, cell membranes
Escherichia coli [8] = assay: Inhibition of AcrA in Escherichia coli assessed as HT dye uptake at 25 uM measured up to 600 secs by fluorescence method relative to control
Escherichia coli [9] = assay: Ratio of MIC for wild type Escherichia coli harboring […] pores in the outer membrane to MIC for wild type Escherichia coli harboring […] pores in the outer membrane in presence of erythromycin; type: functional
Escherichia coli [10] = assay: Antimicrobial activity against AcrAB-TolC knocked out Escherichia coli GD102 harboring […] pores in the outer membrane after 24 hrs by two-fold broth microdilution assay; type: functional; conditions: GD102, 24 h
Escherichia coli [11] = assay: Ratio of MIC for wild type Escherichia coli harboring […] pores in the outer membrane to MIC for wild type Escherichia coli harboring […] pores in the outer membrane in presence of novobiocin; type: functional
Escherichia coli [12] = assay: Antimicrobial activity against Escherichia coli harboring pores in outer membrane after 24 hrs by two-fold broth microdilution assay; type: functional
HEK293 = assay: Cytotoxicity against HEK293 cells assessed as reduction in cell viability after overnight incubation by Cell Titer Glo assay; type: cell-based; conditions: Homo sapiens
Escherichia coli [13] = assay: Disruption of transmembrane potential in Escherichia coli live cells harboring pores in outer membrane at 10 uM by DiSC3(5) probe-based fluorescence assay; type: functional
Escherichia coli [14] = assay: Binding affinity to Escherichia coli AG100 His-tagged AcrA at 50 uM by SPR assay
Escherichia coli [15] = assay: Ratio of MIC for wild type Escherichia coli harboring AcrAB-TolC deletion mutant to MIC for AcrAB-TolC knocked out Escherichia coli GD102 harboring […] pores in the outer membrane; type: functional
Escherichia coli BW25113 [16] = assay: Inhibition of AcrA efflux pump in Escherichia coli BW25113 assessed as compound concentration required for potentiation of novobiocin-induced antibacterial activity by 2 fold by checkerboard assay
Escherichia coli [17] = assay: Inhibition of AcrA in Escherichia coli assessed as increase in HT dye uptake at 25 uM measured up to 600 secs by fluorescence method relative to control

## N#Cc1ccc(NC(=O)c2ccc(C(=O)Nc3ccc(C#N)cc3)c(Cl)c2)cc1
Escherichia coli BW25113 [1]
  Activity: > 400 µM

## O=C(/C=C/c1ccccc1)Nc1ccc(C2=NCCN2)cc1
Escherichia coli BW25113 [1]
  Activity: 200 µM

## Nc1ccc(C2=NCCN2C(=O)c2ccc(C(=O)N3CCN=C3c3ccc(N)cc3)c(Cl)c2)cc1
Escherichia coli BW25113 [1]
  Activity: 50 µM

## O=C(Nc1cccc(C2=NCCN2)c1)c1ccc(C(=O)Nc2cccc(C3=NCCN3)c2)cc1
Escherichia coli [2]
  Activity: Active
Escherichia coli [3]
  Ratio: 4
Escherichia coli [4]
  MIC: 50 µM (≈ 22.6 µg/mL)
Escherichia coli [5]
  MIC: 200 µM (≈ 90.5 µg/mL)
Escherichia coli [6]
  Activity: Active
[7]
  Ratio: 2
Escherichia coli [8]
  fold change (FC): 1.7
Escherichia coli [9]
  Ratio: 4
Escherichia coli [10]
  MIC: 25 µM (≈ 11.3 µg/mL)
Escherichia coli [11]
  Ratio: 4
Escherichia coli [12]
  MIC: 100 µM (≈ 45.3 µg/mL)
Escherichia coli BW25113 [1]
  Activity: 50 µM

## COC(=O)c1ccc(C(=O)Nc2ccc(C3=NCCN3)cc2)cc1
Escherichia coli BW25113 [1]
  Activity: > 400 µM

## CC(C)c1ccc(/C=C/C(=O)Nc2ccc(C3=NCCN3)cc2)cc1
HEK293
  IC50: > 100 µM
Escherichia coli [2]
  Activity: Active
Escherichia coli [3]
  Ratio: 2
Escherichia coli [4]
  MIC: 25 µM (≈ 8.34 µg/mL)
Escherichia coli [5]
  MIC: 100 µM (≈ 33.3 µg/mL)
Escherichia coli [6]
  Activity: Active
[7]
  Ratio: 2
Escherichia coli [8]
  fold change (FC): 6.3
Escherichia coli [9]
  Ratio: 8
Escherichia coli [10]
  MIC: 25 µM (≈ 8.34 µg/mL)
Escherichia coli [11]
  Ratio: 8
Escherichia coli [13]
  Activity: inactive
Escherichia coli [12]
  MIC: 50 µM (≈ 16.7 µg/mL)
Escherichia coli BW25113 [1]
  Activity: 50 µM

## O=C(Cc1ccc(Cl)cc1)Nc1ccc(C2=NCCN2)cc1
Escherichia coli BW25113 [1]
  Activity: > 100 µM

## O=C(Nc1ccc(C2=NCCN2)cc1)c1ccc2c(c1)CN(Cc1ccccc1)C2=O
Escherichia coli BW25113 [1]
  Activity: > 200 µM

## O=C(/C=C/c1ccc(Cl)cc1)Nc1ccc(C2=NCCN2)cc1
Escherichia coli [3]
  Ratio: 4
Escherichia coli [4]
  MIC: 50 µM (≈ 16.3 µg/mL)
Escherichia coli [5]
  MIC: 200 µM (≈ 65.2 µg/mL)
Escherichia coli [6]
  Activity: Active
[7]
  Ratio: 2
Escherichia coli [8]
  fold change (FC): 2.5
Escherichia coli [9]
  Ratio: 4
Escherichia coli [10]
  MIC: 25 µM (≈ 8.14 µg/mL)
Escherichia coli [11]
  Ratio: 8
Escherichia coli [12]
  MIC: 100 µM (≈ 32.6 µg/mL)
Escherichia coli BW25113 [1]
  Activity: 25 µM

## O=C(CCc1ccccc1)Nc1ccc(C2=NCCN2)cc1
Escherichia coli BW25113 [1]
  Activity: > 100 µM

## O=C(Nc1ccc(CO)cc1)c1ccc(C(=O)Nc2ccc(CO)cc2)c(Cl)c1
Escherichia coli BW25113 [1]
  Activity: > 200 µM

## O=C(Nc1ccc(C2=NCCN2)cc1)c1ccc(C(=O)Nc2ccc(C3=NCCN3)cc2)c(Cl)c1
Escherichia coli [2]
  Activity: Active
Escherichia coli [3]
  Ratio: 8
Escherichia coli [4]
  MIC: 25 µM (≈ 12.2 µg/mL)
Escherichia coli [5]
  MIC: > 200 µM
Escherichia coli [6]
  Activity: Active
[7]
  Ratio: 4
Escherichia coli [8]
  fold change (FC): 3.2
Escherichia coli [9]
  Ratio: 8
Escherichia coli [10]
  MIC: 12.5 µM (≈ 6.09 µg/mL)
Escherichia coli [11]
  Ratio: 16
Escherichia coli [14]
  Activity: Active
Escherichia coli [13]
  Activity: inactive
Escherichia coli [12]
  MIC: 100 µM (≈ 48.7 µg/mL)
Escherichia coli BW25113 [1]
  Activity: 25 µM

## O=C(NCc1ccccc1)c1ccc(C(=O)Nc2ccc(C3=NCCN3)cc2)cc1
Escherichia coli BW25113 [1]
  Activity: > 200 µM

## O=C(Nc1ccc(C2=NCCN2)cc1)[C@H]1CC[C@H](C(=O)Nc2ccc(C3=NCCN3)cc2)CC1
Escherichia coli [15]
  Ratio: 2
Escherichia coli [2]
  Activity: inactive
Escherichia coli [4]
  MIC: 12.5 µM (≈ 5.73 µg/mL)
Escherichia coli [5]
  MIC: 50 µM (≈ 22.9 µg/mL)
Escherichia coli [6]
  Activity: Active
[7]
  Ratio: 2
Escherichia coli [10]
  MIC: 6.25 µM (≈ 2.87 µg/mL)
Escherichia coli [14]
  Activity: inactive
Escherichia coli [12]
  MIC: 25 µM (≈ 11.5 µg/mL)
Escherichia coli BW25113 [1]
  Activity: > 400 µM

## O=C(Nc1ccc(S(=O)(=O)O)cc1)c1ccc(C(=O)Nc2ccc(S(=O)(=O)O)cc2)cc1
Escherichia coli BW25113 [1]
  Activity: > 100 µM

## CC(C)(C)c1ccc(/C=C/C(=O)Nc2ccc(C3=NCCN3)cc2)cc1
Escherichia coli BW25113 [16]
  Activity: 12.5 µM
Escherichia coli [2]
  Activity: Active
Escherichia coli [3]
  Ratio: 2
Escherichia coli [4]
  MIC: 12.5 µM (≈ 4.34 µg/mL)
Escherichia coli [5]
  MIC: 25 µM (≈ 8.69 µg/mL)
Escherichia coli [6]
  Activity: Active
[7]
  Ratio: 1
Escherichia coli [8]
  fold change (FC): 2.6
Escherichia coli [9]
  Ratio: 2
Escherichia coli [10]
  MIC: 12.5 µM (≈ 4.34 µg/mL)
Escherichia coli [11]
  Ratio: 2
Escherichia coli [17]
  fold change (FC): 2.6
Escherichia coli [12]
  MIC: 25 µM (≈ 8.69 µg/mL)

## O=C(Nc1ccc(C2=NCCN2)cc1)c1ccc(C(=O)Nc2ccc(C3=NCCN3)cc2)c([N+](=O)[O-])c1
Escherichia coli BW25113 [1]
  Activity: 25 µM

## Cc1cc(C(=O)Nc2ccc(C3=NCCN3)cc2)ccc1C(=O)Nc1ccc(C2=NCCN2)cc1
Escherichia coli BW25113 [1]
  Activity: 25 µM

## O=C(/C=C/c1ccc(Br)cc1)Nc1ccc(C2=NCCN2)cc1
Escherichia coli BW25113 [1]
  Activity: 100 µM
